{
  "source": "patent US20160120979A1",
  "about": "“METHOD OF APPLYING A COMPOSITION AND PHARMACEUTICAL COMPOSITION WITH A REGIMEN OF ADMINISTERING IT” (priority 2013, published 2016)",
  "key": {"fibroblasts": {"test_system": "fibroblasts", "assay_type": "cell-based", "method": "In the second toxicity test fibroblasts were grown in RPMI cell culture medium medium with 10% fetal bovine serum and 1% of penicillin-streptomycin-fungizione (100×).\nA: pulsed for 10 ms on and 90 ms of for 10 minutes or\nB: pulsed for 5 ms on and 45 ms of for 10 minutes\nC: no exposure to electromagnetic radiation\nThe result was obtained by counting viable cells for determination of the percentage of viable cells, with 100% viability being equal to the number of cells delivered to each well."}, "Acinetobacter [1]": {"test_system": "Acinetobacter", "assay": "Experiment 12: replication on antibiotic agar after pulsed 400 nm irradiation", "assay_type": "cell-based", "settings": "24 hours incubation; for C: Acinetobacter (no irradiation), replication: antibiotic 10 mg/l in MH agar; for D Acinetobacter (irradiation), replication: antibiotic 10 mg/l, 400 nm LED pulses 0.02 ms, 1 kHz, 10 minutes", "method": "(§1) 15′000′000 multi-resistant bacteriae (0.050 ml of a McFarland of 1) were put on 40 mm diameter petri dishes. The petri dishes comprised MH agar with or without antibiotic.\n(§2) […]. The LED power during 0.02 ms was measured to be 0.63 W on a Thorlabs power sensor with a surface area of 2.2×2.2 mm representing a power of 13 mW/cm^2."}, "Pseudomonas aeruginosa": {"test_system": "Pseudomonas aeruginosa", "assay": "Experiment 12: replication on antibiotic agar after pulsed 400 nm irradiation", "assay_type": "cell-based", "settings": "24 hours incubation; for A: Pseudomonas aeruginosa (no irradiation), replication: antibiotic 10 mg/l in MH agar; for B: Pseudomonas aeruginosa (irradiation), replication: antibiotic 10 mg/l, 400 nm LED pulses 0.02 ms, 1 kHz, 10 minutes", "method": "as §1, §2"}, "[2]": {"test_system": "Staphylococcus aureus MU500", "assay": "Experiment 12: replication on antibiotic agar after pulsed 400 nm irradiation", "assay_type": "cell-based", "settings": "24 hours incubation; for E: Staphylococcus aureus MU500 (no irradiation), replication: antibiotic 10 mg/l in MH agar; for F: Staphylococcus aureus MU500 (irradiation), replication: antibiotic 10 mg/l, 400 nm LED pulses 0.02 ms, 1 kHz, 10 minutes", "method": "as §1\n(§3) The LED power during 0.02 ms was measured to be 0.63 W on a Thorlabs power sensor with a surface area of 2.2×2.2 mm representing a power of 13 mW/cm^2."}, "Acinetobacter [3]": {"test_system": "Acinetobacter", "assay_type": "cell-based", "settings": "remaining bacteria of experiment 12 proliferated and treated again", "method": "as §1, §3\n(§4) After the irradiation treatment according to experiment 12, remaining bacteria were allowed to proliferate and then were subject to the treatment according to experiment 12 again in order to test for possible new resistances to the treatment. The values in the following table are designated as in experiment 12: […]"}, "[4]": {"test_system": "Staphylococcus aureus MU500", "assay_type": "cell-based", "settings": "remaining bacteria of experiment 12 proliferated and treated again", "method": "as §1, §3, §4"}, "[5]": {"test_system": "MU50 multi-drug resistant bacterial cells", "assay": "Experiment 2: moxifloxacin with UV-A on MU50 (CFU)", "assay_type": "cell-based, Staphylococcus aureus", "settings": "for control: CFU without UVA: no UVA", "description": "This low concentration was chosen so as to detect threshold effects at the low edge of a just marginally effective concentration level of the antibiotic."}, "[6]": {"test_system": "MU50 multidrug-resistant Staphylococcus aureus strain (MRSA)", "assay": "Minimum inhibitory concentration (MIC) on MU50", "assay_type": "cell-based", "settings": "Staphylococcus aureus, MRSA; overnight incubation; read-out: MIC", "description": "For some of the experimental tests MU50 bacteria were used. MU50 is a multidrug-resistant Staphylococcus aureus strain (MRSA). MRSA are bacteria which have naturally evolved under antibiotic selection pressure and which are known to be resistant to antibiotics including penicillins (methicillin, dicloxacillin, nafcillin, oxacillin, etc.) and cephalosporins. MU50 is additionally resistant to macrolides, quinolones and aminoglycosides.\nThe minimum inhibitory concentration (MIC), which inhibits the visible growth of a microorganism after an overnight incubation was determined for the following antibiotics: […]"}, "Mice fibroblast": {"test_system": "Mice fibroblast", "assay_type": "cell-based", "settings": "Tobramycin 75, Tetracycline 10, Ciprofloxacin 1 μg/ml; 30 min pre-incubation; no treatment, CXL 18 mW/cm2 5 min or laser 405 nm 1 min; 24 hours", "procedure": "The number of colony forming units (CFU) was determined after 24 hours of incubation at 37° C."}, "[7]": {"test_system": "chemotherapy resistant stage 4 (metastatic) small cells lung carcinoma cells", "assay": "Experiment 10: metabolic activity (CellTiter-Glo) of resistant neoplastic cells after photo-activated oncological drugs", "settings": "sample 4, Topotecan 0.07 μg/ml"}, "[8]": {"settings": "sample 1A: moxifloxacin during UV 5 μg/ml, after UV 7.5 μg/ml for 2 hours, UV-A 365 nm 10 mW/cm^2 10 min"}, "[9]": {"settings": "sample 1B: moxifloxacin during UV 5 μg/ml, after UV 2.5 μg/ml (NaCl added), UV-A 365 nm 10 mW/cm^2 10 min"}},
  "note": "Read-outs that look alike come from different tables or passages of the source.",
  "data": [
    {"smiles": "COc1c(N2C[C@@H]3CCCN[C@@H]3C2)c(F)cc2c(=O)c(C(=O)O)cn(C3CC3)c12", "note": "[Moxifloxacin]", "values": [
      {"measurement": "Percentage of viable cells", "setting": "fibroblasts; C: no exposure to electromagnetic radiation, antibiotic 3-10 μg/ml final", "result": 85, "unit": "%"},
      {"measurement": "C: Acinetobacter (no irradiation), replication", "setting": "Acinetobacter [1]", "result": "R (Bacteria can replicate after the treatment)"},
      {"measurement": "D Acinetobacter (irradiation), replication", "setting": "Acinetobacter [1]", "result": "NR (No replication)"},
      {"measurement": "A: Pseudomonas aeruginosa (no irradiation), replication", "setting": "Pseudomonas aeruginosa", "result": "R (Bacteria can replicate after the treatment)"},
      {"measurement": "B: Pseudomonas aeruginosa (irradiation), replication", "setting": "Pseudomonas aeruginosa", "result": "NR (No replication)"},
      {"measurement": "E: Staphylococcus aureus MU500 (no irradiation), replication", "setting": "[2]", "result": "R (Bacteria can replicate after the treatment)"},
      {"measurement": "F: Staphylococcus aureus MU500 (irradiation), replication", "setting": "[2]", "result": "NR (No replication)"},
      {"measurement": "D Acinetobacter (irradiation), replication, second treatment", "setting": "Acinetobacter [3]", "result": "NR (No replication)"},
      {"measurement": "C: Acinetobacter (no irradiation), replication, second treatment", "setting": "Acinetobacter [3]", "result": "R (Bacteria can replicate after the treatment)"},
      {"measurement": "F: Staphylococcus aureus MU500 (irradiation), replication, second treatment", "setting": "[4]", "result": "PR (Bacteria can replicate partially)"},
      {"measurement": "E: Staphylococcus aureus MU500 (no irradiation), replication, second treatment", "setting": "[4]", "result": "R (Bacteria can replicate after the treatment)"},
      {"measurement": "control: CFU without UVA", "setting": "[5]; sample 1A: moxifloxacin during 5 μg/ml, after 7.5 μg/ml for 2 hours", "result": 516, "unit": "CFU"},
      {"measurement": "CFU with UVA", "setting": "[5]; [8]", "result": 3, "unit": "CFU"},
      {"measurement": "CFU with UVA, percentage in brackets (survival rate)", "setting": "[5]; [8]", "result": 0, "unit": "%"},
      {"measurement": "control: CFU without UVA", "setting": "[5]; sample 1B: moxifloxacin during 5 μg/ml, after 2.5 μg/ml (NaCl added)", "result": 400, "unit": "CFU"},
      {"measurement": "CFU with UVA", "setting": "[5]; [9]", "result": 119, "unit": "CFU"},
      {"measurement": "CFU with UVA, percentage in brackets", "setting": "[5]; [9]", "result": 30, "unit": "%"}
    ]},
    {"smiles": "CN(C)[C@@H]1C(O)=C(C(N)=O)C(=O)[C@@]2(O)C(O)=C3C(=O)c4c(O)cccc4[C@@](C)(O)C3CC12", "note": "(stereo partly shown) [Tetracycline]", "values": [
      {"measurement": "Percentage of viable cells Normalized for the dead cell in NaCl group including light", "setting": "fibroblasts; A: 405 nm pulsed 10 ms on, 90 ms off for 10 minutes", "result": 52, "unit": "%"},
      {"measurement": "Percentage of viable cells Normalized for the dead cell in NaCl group including light", "setting": "fibroblasts; B: 405 nm pulsed 5 ms on, 45 ms off for 10 minutes", "result": 57, "unit": "%"},
      {"measurement": "MIC", "setting": "[6]", "result": 32, "unit": "µg/mL"},
      {"measurement": "C: Acinetobacter (no irradiation), replication", "setting": "Acinetobacter [1]", "result": "R (Bacteria can replicate after the treatment)"},
      {"measurement": "D Acinetobacter (irradiation), replication", "setting": "Acinetobacter [1]", "result": "NR (No replication)"},
      {"measurement": "A: Pseudomonas aeruginosa (no irradiation), replication", "setting": "Pseudomonas aeruginosa", "result": "R (Bacteria can replicate after the treatment)"},
      {"measurement": "B: Pseudomonas aeruginosa (irradiation), replication", "setting": "Pseudomonas aeruginosa", "result": "NR (No replication)"},
      {"measurement": "E: Staphylococcus aureus MU500 (no irradiation), replication", "setting": "[2]", "result": "R (Bacteria can replicate after the treatment)"},
      {"measurement": "F: Staphylococcus aureus MU500 (irradiation), replication", "setting": "[2]", "result": "NR (No replication)"},
      {"measurement": "toxicity in term of necrosis and apoptosis", "setting": "Mice fibroblast", "result": "No toxicity in term of necrosis and apoptosis"},
      {"measurement": "D Acinetobacter (irradiation), replication, second treatment", "setting": "Acinetobacter [3]", "result": "NR (No replication)"},
      {"measurement": "C: Acinetobacter (no irradiation), replication, second treatment", "setting": "Acinetobacter [3]", "result": "R (Bacteria can replicate after the treatment)"},
      {"measurement": "F: Staphylococcus aureus MU500 (irradiation), replication, second treatment", "setting": "[4]", "result": "NR (No replication)"},
      {"measurement": "E: Staphylococcus aureus MU500 (no irradiation), replication, second treatment", "setting": "[4]", "result": "R (Bacteria can replicate after the treatment)"}
    ]},
    {"smiles": "CC[C@@]1(O)C(=O)OCc2c1cc1n(c2=O)Cc2cc3c(CN(C)C)c(O)ccc3nc2-1", "note": "[Topotecan]", "values": [
      {"measurement": "cell metabolic activity (luminescence, ATP) after normalization with the controls", "setting": "[7]; A: pulse ON 10 ms, 0.1 J, OFF 90 ms, 10 minutes", "result": 7, "unit": "%"},
      {"measurement": "cell metabolic activity (luminescence, ATP) after normalization with the controls", "setting": "[7]; B: pulse ON 10 ms, 0.01-0.001 J, OFF 90 ms, 10 minutes", "result": 52, "unit": "%"},
      {"measurement": "cell metabolic activity (luminescence, ATP) after normalization with the controls", "setting": "[7]; C: control no pulse", "result": 100, "unit": "%"},
      {"measurement": "cell metabolic activity (luminescence, ATP) after normalization with the controls", "setting": "[7]; D: control no pulse", "result": 100, "unit": "%"},
      {"measurement": "cell metabolic activity (luminescence, ATP) after normalization with the controls", "setting": "[7]; E: pulse ON 10 ms, 0.01-0.001 J, OFF 90 ms, 5 minutes", "result": 47, "unit": "%"},
      {"measurement": "cell metabolic activity (luminescence, ATP) after normalization with the controls", "setting": "[7]; F: pulse ON 10 ms, 0.1 J, OFF 90 ms, 5 minutes", "result": 5, "unit": "%"}
    ]}
  ]
}
